Patent US7737167B2, “2-amino benzimidazole derivatives and their use as modulators of small-conductance calcium-activated potassium channels” (Neurosearch A/S, priority 2004, dated 2010)
Structures can show the parent of a compound that is named as a salt.

Row | Compound | melting point [°C]
1 | c1ccc(C(CNc2nc3ccccc3[nH]2)c2ccccc2)cc1 (as salt: HCl) [Example 1, N-(Benzimidazol-2-yl)-2,2-diphenylethylamine] | 153.5 to 154.5
2 | c1ccc(C(CCNc2nc3ccccc3[nH]2)c2ccccc2)cc1 (as salt: HCl) [Example 4, N-(Benzimidazol-2-yl)-3,3-diphenylpropylamine] | 136.5 to 137.5
3 | CC1CCC(Nc2nc3ccccc3[nH]2)c2ccccc21 (stereo not shown) (as salt: HCl) [Example 20, N-(Benzimidazol-2-yl)-4-methyl-1,2,3,4-tetrahydro-1-naphthylamine] | 276
4 | Fc1ccc(C(CNc2nc3ccccc3[nH]2)c2ccc(F)cc2)cc1 [Example 2, N-(Benzimidazol-2-yl)-2,2-bis(4-fluorophenyl)ethylamine] | 155 to 157
5 | Clc1ccc(C(CNc2nc3ccccc3[nH]2)c2ccc(Cl)cc2)cc1 [Example 3, N-(Benzimidazol-2-yl)-2,2-bis(4-chlorophenyl)ethylamine] | 189 to 190
6 | c1ccc2c(c1)CC(Nc1nc3ccccc3[nH]1)C2 [Example 6, N-(Benzimidazol-2-yl)-2-indanylamine] | 246 to 249
7 | Fc1ccc2c(c1)CCC2Nc1nc2ccccc2[nH]1 (stereo not shown) [Example 7, N-(Benzimidazol-2-yl)-5-fluoro-1-indanylamine] | 207 to 208
8 | Clc1ccc2c(c1)CCC2Nc1nc2ccccc2[nH]1 (stereo not shown) [Example 8, N-(Benzimidazol-2-yl)-5-chloro-1-indanylamine] | 242 to 243
9 | Brc1ccc2c(c1)CCC2Nc1nc2ccccc2[nH]1 (stereo not shown) [Example 9, N-(Benzimidazol-2-yl)-5-bromo-1-indanylamine] | 242 to 243
10 | c1ccc(C(Nc2nc3ccccc3[nH]2)c2ccccc2)cc1 [Example 11, N-(Benzimidazol-2-yl)benzhydrylamine] | 255 to 258
11 | Clc1ccc(C(Nc2nc3ccccc3[nH]2)c2ccccc2)cc1 (stereo not shown) [Example 12, N-(Benzimidazol-2-yl)-4-chlorobenzhydrylamine] | 180 to 184
12 | Clc1ccc(C(Nc2nc3ccccc3[nH]2)c2ccc(Cl)cc2)cc1 [Example 13, N-(Benzimidazol-2-yl)-4,4′-dichlorobenzhydrylamine] | 176 to 180
13 | Fc1ccc(C(Nc2nc3ccccc3[nH]2)c2ccc(F)cc2)cc1 [Example 14, N-(Benzimidazol-2-yl)-4,4′-difluorobenzhydrylamine] | 241 to 243
14 | c1ccc2c(c1)CCCCC2Nc1nc2ccccc2[nH]1 (stereo not shown) [Example 15, N-(Benzimidazol-2-yl)-6,7,8,9-tetrahydro-5H-benzocyclohepten-5-ylamine] | 203 to 205
15 | CC1CCc2ccccc2C1Nc1nc2ccccc2[nH]1 (stereo not shown) [Example 18, N-(Benzimidazol-2-yl)-2-methyl-1,2,3,4-tetrahydro-1-naphthylamine] | 256 to 257
16 | Cc1cc(C)c2c(c1)C(Nc1nc3ccccc3[nH]1)CCC2 (stereo not shown) [Example 19, N-(Benzimidazol-2-yl)-5,7-dimethyl-1,2,3,4-tetrahydro-1-naphthylamine] | 250 to 252
17 | Cc1cc2nc(N[C@@H]3CCCc4ccccc43)[nH]c2cc1C [Example 23, (R)-N-(5,6-Dimethylbenzimidazol-2-yl)-1,2,3,4-tetrahydro-1-naphthylamine] | 121 to 124
18 | Fc1ccc2nc(NC3CCCc4ccccc43)[nH]c2c1 (stereo not shown) [Example 24, N-(5-Fluorobenzimidazol-2-yl)-1,2,3,4-tetrahydro-1-naphthylamine] | 220 to 221
19 | Fc1ccc2c(c1)C(Nc1nc3ccccc3[nH]1)CCC2 (stereo not shown) [Example 26, N-(Benzimidazol-2-yl)-7-fluoro-1,2,3,4-tetrahydro-1-naphthylamine] | 181
